Source: patent publication EP0057900B1, “Animal feed additive for improving growth” (Dr. Karl Thomae GmbH, priority 1981, dated 1982)
Where a name gives a salt, the structure may show the parent alone.

Columns and labels:
[1] = Acute toxicity in mice after i.v. administration; assay type: in vivo, Mäusen; settings: mouse, in vivo, iv, mean weight 22 g, i. v. in physiological saline, dose at which 50% of animals died, observation time 14 days, Litchfield and Wilcoxon
Description: (§1) Die akute Toxizität der zu untersuchenden Substanzen, welche in physiologischer Kochsalzlösung gelöst wurden, wurde an Mäusen mit einem durchschnittlichen Gewicht von 22 g nach i. v. Gabe (0.1 mt/10 g) bestimmt. Es wurde die LD50, die Dosis bei welcher 50% der Tiere nach einer Beobachtungszeit von 14 Tagen verstarben, nach der Methode von Litchfield und Wilcoxon (J. Pharmacol. exp. Ther. 96, 99-113 (1949)) berechnet.

Mäusen = assay: Acute toxicity in mice after i.v. administration; assay type: in vivo; settings: mean weight 22 g, i. v. in physiological saline, dose at which 50% of animals died, observation time 14 days, Litchfield and Wilcoxon
Description: as §1

[2] = tested on: Fettsäuregehalt des Blutes; assay: Lipolytic effect in rabbits (blood fatty acid content, method of Duncombe); assay type: in vivo, Kaninchen; settings: Oryctolagus cuniculus, iv; male and female rabbits, mean weight 2,3 kg; i. v. in physiological saline; dose causing a 50% reduction of blood fatty acid content; calculated according to Fieler; read-out: ED50 µg/kg i. v.
Description: Beispielsweise wurde die lipolytische Wirkung der Verbindungen • A = 1-(4-Amino-3-cyan-5-fluor-phenyl)-2-tert.butylamino-äthanol-hydrochlorid, • B = 1-(4-Amino-3-cyan-5-fluor-phenyl)-2-isopropylamino-äthanol-hydrochforid, • C = 1-(4-Amino-3-cyan-5-fluor-phenyl)-2-cyclobutylamino-äthanol-hydrochlorid, • D = 1-(4-Amino-3-chlor-5-cyan-phenyl)-2-isopropylamino-äthanol-hydrochlorid, • E = 1-(4-Amino-3-chlor-5-cyan-phenyl)-2-cyclobutylamino-äthanol-hydrochlorid, • F = 1-(4-Amino-3-chlor-5-cyan-phenyl)-2-cyclopentylamino-äthanol-hydrochlorid und • G = 1-(4-Amino-3-chlor-5-trifluormethylphenyl)-2-cyclobutylamino-äthanor-hydrochlorid
an Kaninchen wie folgt geprüft:
Die zu untersuchenden Substanzen wurden männlichen und weiblichen Kaninchen mit einem durchschnittlichen Gewicht von 2,3 kg, gelöst in physiologischer Kochsalzlösung i. v. injiziert (0,2 mg/kg). Der Fettsäuregehalt des Blutes wurde nach der Methode von Duncombe (Biochem. J. 88, 7-10 (1963)) bestimmt. Es wurde die EDso, die Dosis, die eine 50%ige Senkung des Fettsäuregehaltes bewirkt, nach Fieler (Quart. J. Pharm. Pharmacol. 17, 117―123 (1964)) berechnet.

For `CC(C)(C)NCC(O)c1cc(F)c(N)c(C#N)c1` (stereo not shown) [A, 1-(4-Amino-3-cyan-5-fluor-phenyl)-2-tert.butylamino-äthanol-hydrochlorid], the LD50 at 336 h [1] was 73.6 mg/kg.
In the case of `CC(C)NCC(O)c1cc(F)c(N)c(C#N)c1` (stereo not shown) [B, 1-(4-Amino-3-cyan-5-fluor-phenyl)-2-isopropylamino-äthanol-hydrochforid], the “LD50 mg/kg i. v.” value (Mäusen) is reported as 66,4 mg/kg.
`CC(C)NCC(O)c1cc(Cl)c(N)c(C#N)c1` (stereo not shown) [D, 1-(4-Amino-3-chlor-5-cyan-phenyl)-2-isopropylamino-äthanol-hydrochlorid] showed an LD50 at 336 h [1] of 81 mg/kg.
In the case of `N#Cc1cc(C(O)CNC2CCCC2)cc(Cl)c1N` (stereo not shown) [F, 1-(4-Amino-3-chlor-5-cyan-phenyl)-2-cyclopentylamino-äthanol-hydrochlorid], the ED50 [2] is reported as 0.16 µg/kg and the “LD50 mg/kg i. v.” value (Mäusen) is reported as 39,1 mg/kg.
With `Nc1c(Cl)cc(C(O)CNC2CCC2)cc1C(F)(F)F` (stereo not shown) [G, 1-(4-Amino-3-chlor-5-trifluormethylphenyl)-2-cyclobutylamino-äthanor-hydrochlorid] the ED50 [2] was 0.46 µg/kg.
Work on `N#Cc1cc(C(O)CNC2CCC2)cc(Cl)c1N` (stereo not shown) [Verbindung E, 1-(4-Amino-3-chlor-5-cyan-phenyl)-2-cyclobutylamino-äthanol-hydrochlorid] yielded an LD50 at 336 h [1] of 43.9 mg/kg.
